Data from ChEMBL document CHEMBL1124001, “Synthesis and antileukemic activity of bis[[(carbamoyl)oxy]methyl]- substituted pyrrolo[2,1-a]isoquinolines, pyrrolo[1,2-a]quinolines, pyrrolo[2,1-a]isobenzazepines, and pyrrolo[1,2-a]benzazepines” (J Med Chem, 1988).

Key:
[1] = tested on: Mus musculus; assay: Net log cell kill was determined after injecting 7.5 mg/kg intraperitoneally in CD2F1 mice; type: functional; details: route intraperitoneal
[2] = tested on: Mus musculus; assay: Net log cell kill was determined after injecting 1.87 mg/kg intraperitoneally in CD2F1 mice; type: functional; details: route intraperitoneal
[3] = tested on: Mus musculus; assay: Net log cell kill was determined after injecting 15 mg/kg intraperitoneally in CD2F1 mice; type: functional; details: route intraperitoneal
[4] = tested on: Mus musculus; assay: Body weight change of test animals to that of control was determined after injection at 7.5 mg/kg intraperitoneally in CD2F1 mice; type: functional; details: route intraperitoneal
[5] = tested on: Mus musculus; assay: Net log cell kill was determined after injecting 3.75 mg/kg intraperitoneally in CD2F1 mice; type: functional; details: route intraperitoneal
[6] = tested on: Mus musculus; assay: Net log cell kill was determined after injecting 30 mg/kg intraperitoneally in CD2F1 mice; type: functional; details: route intraperitoneal
[7] = tested on: Mus musculus; assay: Body weight change of test animals to that of control was determined after injection at 1.87 mg/kg intraperitoneally in CD2F1 mice; type: functional; details: route intraperitoneal
[8] = tested on: Mus musculus; assay: Body weight change of test animals to that of control was determined after injection at 15 mg/kg intraperitoneally in CD2F1 mice; type: functional; details: route intraperitoneal
[9] = tested on: Mus musculus; assay: Body weight change of test animals to that of control was determined after injection at 3.75 mg/kg intraperitoneally in CD2F1 mice; type: functional; details: route intraperitoneal
[10] = tested on: Mus musculus; assay: Body weight change of test animals to that of control was determined after injection at 30 mg/kg intraperitoneally in CD2F1 mice; type: functional; details: route intraperitoneal
[11] = tested on: Mus musculus; assay: Toxicity day survivors was determined by the ratio of animals survived to that of test animals at 3.75 mg/kg intraperitoneally in CD2F1 mice; 5/5; type: organism-based; design: dose 3.75 mg/kg, route intraperitoneal; details: in vivo, ip
[12] = tested on: Mus musculus; assay: Toxicity day survivors was determined by the ratio of animals survived to that of test animals at 30 mg/kg intraperitoneally in CD2F1 mice; 6/6; type: organism-based; design: dose 30 mg/kg, route intraperitoneal; details: in vivo, ip
[13] = tested on: Mus musculus; assay: Toxicity day survivors was determined by the ratio of animals survived to that of test animals at 60 mg/kg intraperitoneally in CD2F1 mice; 0/6; type: organism-based; design: dose 60 mg/kg, route intraperitoneal; details: in vivo, ip
[14] = tested on: Mus musculus; assay: Toxicity day survivors was determined by the ratio of animals survived to that of test animals at 1.87 mg/kg intraperitoneally in CD2F1 mice; 5/5; type: organism-based; design: dose 1.87 mg/kg, route intraperitoneal; details: in vivo, ip
[15] = tested on: Mus musculus; assay: Toxicity day survivors was determined by the ratio of animals survived to that of test animals at 15 mg/kg intraperitoneally in CD2F1 mice; 4/4; type: organism-based; design: dose 15 mg/kg, route intraperitoneal; details: in vivo, ip
[16] = tested on: Mus musculus; assay: Ratio of treated to that of untreated tumor-bearing control animals at 30 mg/kg intraperitoneally in CD2F1 mice was determined; type: functional; details: route intraperitoneal
[17] = tested on: Mus musculus; assay: Ratio of treated to that of untreated tumor-bearing control animals at 7.5 mg/kg intraperitoneally in CD2F1 mice was determined; type: functional; details: route intraperitoneal
[18] = tested on: Mus musculus; assay: Ratio of treated to that of untreated tumor-bearing control animals at 1.87 mg/kg intraperitoneally in CD2F1 mice was determined; type: functional; details: route intraperitoneal
[19] = tested on: Mus musculus; assay: Ratio of treated to that of untreated tumor-bearing control animals at 15 mg/kg intraperitoneally in CD2F1 mice was determined; type: functional; details: route intraperitoneal
[20] = tested on: Mus musculus; assay: Toxicity day survivors was determined by the ratio of animals survived to that of test animals at 7.5 mg/kg intraperitoneally in CD2F1 mice; 4/4; type: organism-based; design: dose 7.5 mg/kg, route intraperitoneal; details: in vivo, ip
[21] = tested on: Mus musculus; assay: Ratio of treated to that of untreated tumor-bearing control animals at 3.75 mg/kg intraperitoneally in CD2F1 mice was determined; type: functional; details: route intraperitoneal
[22] = tested on: Mus musculus; assay: Toxicity day survivors was determined by the ratio of animals survived to that of test animals at 15 mg/kg intraperitoneally in CD2F1 mice; 0/6; type: organism-based; design: dose 15 mg/kg, route intraperitoneal; details: in vivo, ip
[23] = tested on: Mus musculus; assay: Toxicity day survivors was determined by the ratio of animals survived to that of test animals at 3.75 mg/kg intraperitoneally in CD2F1 mice; 6/6; type: organism-based; design: dose 3.75 mg/kg, route intraperitoneal; details: in vivo, ip
[24] = tested on: Mus musculus; assay: Toxicity day survivors was determined by the ratio of animals survived to that of test animals at 1.87 mg/kg intraperitoneally in CD2F1 mice; 6/6; type: organism-based; design: dose 1.87 mg/kg, route intraperitoneal; details: in vivo, ip
[25] = tested on: Mus musculus; assay: Toxicity day survivors was determined by the ratio of animals survived to that of test animals at 7.5 mg/kg intraperitoneally in CD2F1 mice; 6/6; type: organism-based; design: dose 7.5 mg/kg, route intraperitoneal; details: in vivo, ip

SMILES | KE [1] | KE [2] | T-C [4] [g] | KE [5] | T-C [7] [g] | T-C [9] [g] | T/C [17] [%] | T/C [18] [%] | T/C [21] [%] | other results
COc1ccc2c(c1)CCc1c(COC(=O)NC(C)C)c(COC(=O)NC(C)C)c(C)n1-2 | -1.31 | -1.56 | -2.9 | -1.45 | -0.6 | -0.8 | 116 | 97 | 105 | KE [3]: 1.43; KE [6]: 1.51; T-C [8]: -6.5 g; T-C [10]: -4.2 g; TDS [11]: 5; TDS [12]: 6; TDS [13]: 0; TDS [14]: 5; TDS [15]: 4; T/C [16]: 160%; T/C [19]: 150%; TDS [20]: 4
Cc1c(COC(=O)NC(C)C)c(COC(=O)NC(C)C)c2n1-c1ccccc1CC2 | -1.64 | -0.14 | -2.8 | 1.47 | -1.5 | -3.6 | 94 | 134 | 155 | TDS [22]: 0; TDS [23]: 6; TDS [24]: 6; TDS [25]: 6
